11 compounds from ChEMBL document CHEMBL1201862, “PubChem BioAssay data set” (2004) can be followed below.

A word on the IC50: it is the concentration at which inhibition is half-maximal. What is called CC50 is the concentration giving 50% cytotoxicity. What is called EC50 is the midpoint of the concentration-response curve. Read a low EC50 as greater potency.

Molecules are shown by their SMILES. Activity calls are given as the source filed them.

A short description of test [1]: HepG2 cell cytotoxicity, dose response, cytotoxicity control for Shn3 inhibitor project, CellTiter-Glo, cherry-picked (AID 624134). It is filed as functional, cell-based. Background: ATP-based viability assays read luminescence as a measure of living cells.
Test [2] concerns the target T1, Neuropeptide Y receptor type 2 (Homo sapiens, UniProt P49146).
T1 sequence (P49146 whole entry): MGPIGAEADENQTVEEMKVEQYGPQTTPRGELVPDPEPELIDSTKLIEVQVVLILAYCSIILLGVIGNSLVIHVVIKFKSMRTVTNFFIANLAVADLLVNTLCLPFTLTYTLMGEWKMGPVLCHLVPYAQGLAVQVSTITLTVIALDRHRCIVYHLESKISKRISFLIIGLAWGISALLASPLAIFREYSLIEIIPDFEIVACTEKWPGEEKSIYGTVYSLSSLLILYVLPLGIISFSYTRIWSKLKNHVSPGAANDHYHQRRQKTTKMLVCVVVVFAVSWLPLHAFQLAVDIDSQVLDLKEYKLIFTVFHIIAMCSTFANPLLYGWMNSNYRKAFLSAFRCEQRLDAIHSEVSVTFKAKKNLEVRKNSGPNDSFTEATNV
Kind of test: NPY-Y2 antagonist potency, selectivity check, dose response, counter-screen for NPY-Y1 antagonist project, cell-based (AID 1278). It counts as functional. A general note: The purpose of a counterscreen is to sort out artefacts and off-target activity.

For test [3], the target named is T2, Neuropeptide Y receptor type 1 (Homo sapiens, UniProt P25929).
T2 sequence (P25929 whole entry): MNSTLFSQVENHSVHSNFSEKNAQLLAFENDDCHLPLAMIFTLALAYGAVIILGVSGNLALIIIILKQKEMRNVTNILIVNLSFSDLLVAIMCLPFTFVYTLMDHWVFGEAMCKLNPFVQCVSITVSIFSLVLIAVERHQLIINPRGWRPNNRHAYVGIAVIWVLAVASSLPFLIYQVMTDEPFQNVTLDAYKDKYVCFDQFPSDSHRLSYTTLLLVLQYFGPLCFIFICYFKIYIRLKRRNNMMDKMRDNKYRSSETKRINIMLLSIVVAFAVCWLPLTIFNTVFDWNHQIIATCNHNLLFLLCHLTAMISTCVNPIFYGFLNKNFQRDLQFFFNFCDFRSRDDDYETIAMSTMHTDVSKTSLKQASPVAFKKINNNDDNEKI
Put plainly: NPY-Y1 receptor antagonist potency, dose response, cell-based (AID 1277). It is filed as functional.

The target of test [4] is T3, Sphingosine 1-phosphate receptor 2 (Homo sapiens, UniProt O95136). Put plainly: Dose Response Cell Based Assay for Antagonists of the S1P2 Receptor. [Related pubchem assays: 856, 736 ]. It counts as functional.
T3 sequence (O95136 whole entry): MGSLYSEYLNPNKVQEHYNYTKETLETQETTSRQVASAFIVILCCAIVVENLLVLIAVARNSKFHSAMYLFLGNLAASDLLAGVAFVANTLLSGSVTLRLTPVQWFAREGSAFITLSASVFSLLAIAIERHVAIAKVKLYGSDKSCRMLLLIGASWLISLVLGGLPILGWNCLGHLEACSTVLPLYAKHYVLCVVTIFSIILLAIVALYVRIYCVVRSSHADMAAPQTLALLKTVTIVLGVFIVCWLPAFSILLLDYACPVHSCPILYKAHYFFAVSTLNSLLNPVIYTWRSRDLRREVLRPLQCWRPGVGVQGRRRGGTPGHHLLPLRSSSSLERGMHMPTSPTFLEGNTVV
Test [5] is described as follows: Shn3 3'UTR reporter inhibitors, dose response, cell-based, Clone20 osteoblasts, firefly luciferase, cherry-picked (AID 624132).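 Note: firefly luciferase luminescence from reporter carrying the Shn3 3'UTR in osteoblasts.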 It counts as functional.
Test [6] in a line: control 3'UTR Renilla luciferase suppression, dose response, counter-screen for Shn3 inhibitor project, cell-based, Clone20-Shn3RL, cherry-picked (AID 624133). It is filed as functional.
The target of the next test is Cytochrome P450 2C19 (Homo sapiens, UniProt P33261). Kind of test: qHTS Assay for Inhibitors and Substrates of Cytochrome P450 2C19. [Related pubchem assays: 410 ]. It is filed as ADME. The conditions noted are these: read-out: Potency. (In general: Quantitative high-throughput screening tests each substance at several concentrations.)
Cytochrome P450 2C19, sequence (P33261 whole entry): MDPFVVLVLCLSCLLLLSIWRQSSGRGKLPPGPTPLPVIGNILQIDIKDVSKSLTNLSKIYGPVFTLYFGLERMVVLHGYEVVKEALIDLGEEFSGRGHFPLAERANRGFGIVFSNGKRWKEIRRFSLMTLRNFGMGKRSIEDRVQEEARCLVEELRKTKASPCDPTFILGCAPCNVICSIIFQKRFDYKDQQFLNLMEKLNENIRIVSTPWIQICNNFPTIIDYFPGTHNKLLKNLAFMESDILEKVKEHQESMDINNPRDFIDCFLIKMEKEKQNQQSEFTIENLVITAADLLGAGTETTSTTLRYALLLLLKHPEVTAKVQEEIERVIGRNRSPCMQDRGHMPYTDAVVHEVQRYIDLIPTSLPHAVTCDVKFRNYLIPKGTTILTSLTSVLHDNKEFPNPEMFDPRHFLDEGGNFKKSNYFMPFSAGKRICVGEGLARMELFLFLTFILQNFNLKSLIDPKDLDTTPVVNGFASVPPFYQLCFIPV
A further test relates to Vero. Kind of test: West Nile virus antiviral activity, cell-based, CPE readout (AID 1621). It counts as functional. The conditions noted are these: Chlorocebus sabaeus.
Test [7] is described as follows: HeLa cell cytotoxicity, dose response, cytotoxicity control for MgcRacGAP inhibitor project (AID 624300). It is filed as functional.
In test [8] the target is T4, Rac GTPase-activating protein 1 (Homo sapiens, UniProt Q9H0H5).
T4 sequence (Q9H0H5 whole entry): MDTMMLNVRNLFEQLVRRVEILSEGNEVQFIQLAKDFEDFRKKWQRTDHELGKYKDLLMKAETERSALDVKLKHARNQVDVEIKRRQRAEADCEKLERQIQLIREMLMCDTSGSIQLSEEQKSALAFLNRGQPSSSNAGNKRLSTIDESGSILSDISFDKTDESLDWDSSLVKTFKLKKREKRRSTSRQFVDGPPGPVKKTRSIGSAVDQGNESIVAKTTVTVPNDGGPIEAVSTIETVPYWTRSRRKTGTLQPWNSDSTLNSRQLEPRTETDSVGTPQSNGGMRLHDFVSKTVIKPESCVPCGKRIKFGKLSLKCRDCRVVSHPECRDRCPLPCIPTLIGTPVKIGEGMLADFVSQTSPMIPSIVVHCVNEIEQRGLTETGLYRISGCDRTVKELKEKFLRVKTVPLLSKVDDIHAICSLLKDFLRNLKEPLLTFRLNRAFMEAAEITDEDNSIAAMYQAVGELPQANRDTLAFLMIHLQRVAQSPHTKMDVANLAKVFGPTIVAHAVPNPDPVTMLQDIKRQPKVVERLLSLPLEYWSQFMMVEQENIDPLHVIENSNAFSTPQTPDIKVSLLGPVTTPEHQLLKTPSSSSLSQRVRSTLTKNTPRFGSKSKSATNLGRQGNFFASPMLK
Put plainly: MgcRacGAP GTPase-activating activity inhibitors, confirmation, biochemical, ADP Hunter fluorescence, primary and confirmatory (AID 624330). It counts as functional.

Another test deals with 14-3-3 protein gamma (Homo sapiens, UniProt P61981). Put plainly: modulators of 14-3-3 gamma client binding – dose response (AID 711). It counts as functional.
14-3-3 protein gamma, sequence (P61981 whole entry): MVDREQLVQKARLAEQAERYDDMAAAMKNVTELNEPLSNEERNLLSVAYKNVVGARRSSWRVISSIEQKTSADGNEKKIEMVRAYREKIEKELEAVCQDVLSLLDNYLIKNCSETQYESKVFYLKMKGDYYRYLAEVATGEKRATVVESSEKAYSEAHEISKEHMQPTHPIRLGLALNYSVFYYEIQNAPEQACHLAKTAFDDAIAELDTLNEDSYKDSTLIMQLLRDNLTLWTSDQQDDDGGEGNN
Test [9] addresses T3, Sphingosine 1-phosphate receptor 2. Put plainly: Dose Response Cell Based Assay for Agonists of the S1P2 Receptor. [Related pubchem assays: 729, 736, 843 ]. It is filed as functional.
Test [10] shares this target. Put plainly: Dose Response Cell Based Assay for Agonists of the S1P2 Receptor of Purchased Analogues. [Related pubchem assays: 729, 843, 854, 736 ]. It counts as functional.
The target in test [11] is Diphosphomevalonate decarboxylase (Streptococcus pneumoniae serotype 2 (strain D39 / NCTC 7466), UniProt Q9FD53). Kind of test: S. pneumoniae DPM-DC inhibition retest, confirmation, biochemical, cuvette format, coupled NADH fluorescence (AID 1028). It is filed as functional.
Diphosphomevalonate decarboxylase, sequence (Q9FD53 whole entry): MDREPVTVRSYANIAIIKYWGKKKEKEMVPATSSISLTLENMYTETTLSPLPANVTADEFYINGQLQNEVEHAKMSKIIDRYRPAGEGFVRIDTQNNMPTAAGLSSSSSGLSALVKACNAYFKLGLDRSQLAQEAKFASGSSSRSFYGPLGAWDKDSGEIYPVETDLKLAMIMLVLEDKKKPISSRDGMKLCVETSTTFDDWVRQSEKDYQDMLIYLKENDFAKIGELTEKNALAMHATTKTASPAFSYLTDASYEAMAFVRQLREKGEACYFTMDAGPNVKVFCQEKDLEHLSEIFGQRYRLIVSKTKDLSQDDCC
Test [12] deals with Lytic switch protein BZLF1 (Epstein-Barr virus (strain B95-8) (HHV-4) (Human herpesvirus 4), UniProt P03206). Kind of test: EBV ZTA inhibitors, dose response, counter-screen for EBNA-1 inhibitor project, biochemical, fluorescence polarization, Epstein-Barr virus, 1536-well (AID 2377).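 Note: fluorescence polarization of Cy5-labelled ZRE DNA probe bound by purified Zta.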 On the set-up: species or system human gammaherpesvirus 4.
Lytic switch protein BZLF1, sequence (P03206 whole entry): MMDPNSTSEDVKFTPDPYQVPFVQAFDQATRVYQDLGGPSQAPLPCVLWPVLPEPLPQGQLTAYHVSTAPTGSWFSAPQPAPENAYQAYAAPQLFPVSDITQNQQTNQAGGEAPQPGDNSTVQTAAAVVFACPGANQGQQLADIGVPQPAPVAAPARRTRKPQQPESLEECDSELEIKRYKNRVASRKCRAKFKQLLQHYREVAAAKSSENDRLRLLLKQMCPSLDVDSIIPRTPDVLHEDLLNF
In test [13] the target is Epstein-Barr nuclear antigen 1 (Epstein-Barr virus (strain B95-8) (HHV-4) (Human herpesvirus 4), UniProt P03211). Put plainly: EBNA-1 inhibitors, dose response, biochemical, fluorescence polarization, 1536-well (AID 2381).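 Note: fluorescence polarization of a Cy5 DNA probe bound by EBNA-1 protein.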 Further details: species or system human gammaherpesvirus 4.
Epstein-Barr nuclear antigen 1, sequence (P03211 whole entry): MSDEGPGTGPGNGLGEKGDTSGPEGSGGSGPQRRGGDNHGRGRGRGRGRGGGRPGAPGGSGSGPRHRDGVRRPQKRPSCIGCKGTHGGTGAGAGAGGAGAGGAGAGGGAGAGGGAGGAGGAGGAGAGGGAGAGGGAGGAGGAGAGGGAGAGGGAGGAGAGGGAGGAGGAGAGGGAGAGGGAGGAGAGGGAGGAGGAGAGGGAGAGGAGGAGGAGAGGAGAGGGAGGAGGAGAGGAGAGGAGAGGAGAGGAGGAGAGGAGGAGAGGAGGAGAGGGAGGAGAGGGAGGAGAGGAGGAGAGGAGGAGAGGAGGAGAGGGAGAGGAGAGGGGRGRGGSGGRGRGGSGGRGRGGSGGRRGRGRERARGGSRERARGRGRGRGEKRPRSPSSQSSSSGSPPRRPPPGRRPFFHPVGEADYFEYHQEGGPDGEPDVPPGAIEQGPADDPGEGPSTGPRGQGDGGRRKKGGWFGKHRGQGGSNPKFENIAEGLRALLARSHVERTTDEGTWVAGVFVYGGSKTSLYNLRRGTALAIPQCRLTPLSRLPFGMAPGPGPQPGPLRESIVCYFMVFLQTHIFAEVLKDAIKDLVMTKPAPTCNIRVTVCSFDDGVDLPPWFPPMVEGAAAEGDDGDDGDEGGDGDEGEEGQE
The next test addresses NADPH oxidase 1 (Homo sapiens, UniProt Q9Y5S8). Put plainly: Late-stage luminescence-based cell-based dose response assay to identify inhibitors of NADPH oxidase 1 (NOX1): Synthesized analogs 3. It is filed as functional.
The target of test [14] is Mitogen-activated protein kinase 10 (Homo sapiens, UniProt P53779). Kind of test: Dose response biochemical screening assay for inhibitors of c-Jun N-Terminal Kinase 3 (JNK3). [Related pubchem assays: 746 ].
Mitogen-activated protein kinase 10, sequence (P53779 whole entry): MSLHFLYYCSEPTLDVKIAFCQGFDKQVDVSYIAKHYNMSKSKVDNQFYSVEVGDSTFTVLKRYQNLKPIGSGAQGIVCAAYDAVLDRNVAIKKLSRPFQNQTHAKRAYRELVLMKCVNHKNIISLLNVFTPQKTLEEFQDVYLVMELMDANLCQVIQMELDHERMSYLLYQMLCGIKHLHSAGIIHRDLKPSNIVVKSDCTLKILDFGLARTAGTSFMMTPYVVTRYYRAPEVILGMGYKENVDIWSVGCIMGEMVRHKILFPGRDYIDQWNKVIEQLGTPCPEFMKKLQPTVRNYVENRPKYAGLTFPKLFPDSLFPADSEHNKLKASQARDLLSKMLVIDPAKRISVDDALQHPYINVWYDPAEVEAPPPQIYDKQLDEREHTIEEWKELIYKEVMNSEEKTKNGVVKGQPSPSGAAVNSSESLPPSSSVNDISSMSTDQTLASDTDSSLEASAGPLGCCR
In the next test the target is Prothrombin (Homo sapiens, UniProt P00734). Put plainly: Thrombin 1536 HTS Dose Response Confirmation. [Related pubchem assays: 1046 (Thrombin 1536 HTS; hits were confirmed in this assay)]. It counts as functional.
The target of another test is T5, Coagulation factor XII (Homo sapiens, UniProt P00748).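 Note: activated factor XIIa alpha cleaving a fluorogenic AMC peptide substrate; inhibitor potency from loss of enzyme activity.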
T5 sequence (P00748 whole entry): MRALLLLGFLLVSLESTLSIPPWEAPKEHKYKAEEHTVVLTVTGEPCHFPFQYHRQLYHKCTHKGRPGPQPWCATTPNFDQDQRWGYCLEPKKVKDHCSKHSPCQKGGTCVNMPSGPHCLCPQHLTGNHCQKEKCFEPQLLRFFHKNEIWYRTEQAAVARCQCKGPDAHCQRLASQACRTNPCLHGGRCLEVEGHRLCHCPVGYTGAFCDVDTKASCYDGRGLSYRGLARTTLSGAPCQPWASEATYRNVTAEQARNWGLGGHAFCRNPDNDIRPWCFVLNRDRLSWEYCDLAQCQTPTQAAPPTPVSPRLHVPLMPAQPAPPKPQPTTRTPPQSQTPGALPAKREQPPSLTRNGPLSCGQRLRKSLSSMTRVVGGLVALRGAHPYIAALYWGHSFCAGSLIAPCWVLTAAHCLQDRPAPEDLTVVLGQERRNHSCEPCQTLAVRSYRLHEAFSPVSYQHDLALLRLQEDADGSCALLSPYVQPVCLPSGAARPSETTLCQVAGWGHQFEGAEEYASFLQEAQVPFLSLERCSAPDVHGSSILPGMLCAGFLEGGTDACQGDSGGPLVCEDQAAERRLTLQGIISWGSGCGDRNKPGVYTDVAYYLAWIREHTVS
It is filed as functional.

NADPH oxidase 1, sequence (Q9Y5S8 whole entry): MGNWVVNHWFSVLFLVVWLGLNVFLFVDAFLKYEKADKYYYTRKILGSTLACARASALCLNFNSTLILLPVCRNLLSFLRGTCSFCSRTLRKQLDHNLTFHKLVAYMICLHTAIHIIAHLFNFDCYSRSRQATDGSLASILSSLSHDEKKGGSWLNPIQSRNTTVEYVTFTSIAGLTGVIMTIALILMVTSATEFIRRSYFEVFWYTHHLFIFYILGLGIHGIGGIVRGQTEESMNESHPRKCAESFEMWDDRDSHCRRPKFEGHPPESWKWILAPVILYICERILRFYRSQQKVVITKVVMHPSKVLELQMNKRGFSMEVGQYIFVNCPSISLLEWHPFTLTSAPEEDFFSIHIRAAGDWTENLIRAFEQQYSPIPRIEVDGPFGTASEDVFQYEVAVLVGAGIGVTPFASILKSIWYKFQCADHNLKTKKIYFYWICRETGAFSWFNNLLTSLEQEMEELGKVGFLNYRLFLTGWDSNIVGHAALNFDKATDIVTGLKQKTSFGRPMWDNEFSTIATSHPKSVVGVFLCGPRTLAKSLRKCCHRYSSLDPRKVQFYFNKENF

Turning to `CCN(C(=O)c1ccc(C(C)(C)C)cc1)c1nnc(Cn2nnc3ccccc32)s1`, the AC50 in [1] is 1.55 µM (active); in [5] it was 1.35 µM (active); in [6] it was 2 µM (active). Moreover, the half-inhibitory concentration (IC50) is 7.74 µM (active) in [2], 3.21 µM (active) in test [3] and 83.8 µM (not active) in test [4].

Turning to `CNc1ccccc1C(=O)OCC(=O)c1ccccc1`, the AC50 at Cytochrome P450 2C19 is 2 µM (inconclusive).

Turning to `CCOC(=O)c1c(NC(=O)CN(C)C2CCN(C)CC2)sc(C(=O)Nc2ccccc2)c1C`, the half-maximal inhibitory concentration (IC50) is 24.3 µM (active) in the test on Vero and 76.9 µM (active) in test [8]. Further, the CC50 in [7] is 100 µM (active).

For `COc1ccc(OC)c(NC(=O)CCN2CCCC(C)C2)c1` (stereo not given), the IC50 on 14-3-3 protein gamma is > 50 µM (not active).

As to `c1ccc(OCCSc2nnnn2-c2ccccc2)cc1`, the EC50 in test [9] is > 50 µM (not active).

Consider `Cc1cc(C(=O)CN(C)Cc2ccco2)c(C)n1Cc1ccccc1`, for which the 50% effective concentration (EC50) in [10] is reported as > 30 µM (not active).

Turning to `O=C(NCc1ccccc1)c1ccccc1-n1sc2ccccc2c1=O`, in [11], the IC50 was 12.4 µM (active).

As to `COCCCNC(=O)c1c(N)n(-c2ccc(S(N)(=O)=O)cc2)c2nc3ccccc3nc12`, the values for the IC50 in [12] and in [13] were > 111 µM (not active) and > 5.47 µM (active), respectively.

In the case of `CN1c2ccc(Br)cc2Sc2cc(C(=O)c3ccc(N=[N+]=[N-])cc3)ccc21`, the IC50 at NADPH oxidase 1 was 13.7 µM (active).

Turning to `CS(=O)(=O)N1CCN(c2ccccc2NC(=O)Cc2ccccc2)CC1`, the IC50 in [14] is on record as 68.8 µM (not active).

Consider `COc1ccc(/C=N/NC(=O)c2sc3nc(C)cc(C)c3c2N)cc1`, for which the figures for the half-inhibitory concentration (IC50) on Prothrombin and on Coagulation factor XII were > 50 µM (not active) and > 50 µM (inactive), respectively.
